Converted amounts (≈) assume the structure as drawn.

In the test the test system is Vaccinia virus. Put plainly: Concentration required to reduce cytopathogenicity of vaccinia virus by 50% in primary rabbit kidney (PRK) cells. The test is classed as functional, Orthopoxvirus vaccinia.
As to `Nc1nc2c(nc(O)n2COCCO)c(=O)[nH]1`, the ID50 is more than 400 µg/mL.

`Cc1nc2c(O)nc(N)nc2n1COCCO`: the ID50 is more than 400 µg/mL.

Compound `Nc1ccn(COCCO)c(=O)n1` returned an ID50 of more than 400 µg/mL.

Compound `CNc1nc2c(=O)[nH]c(N)nc2n1COCCO` returned an ID50 of more than 400 µg/mL.

`Nc1nc2c(nc(I)n2COCCO)c(=O)[nH]1` showed an ID50 of more than 400 µg/mL.

Consider `CC(=O)OCCOCn1cnc2c(Cl)nc(N)nc21`, for which the ID50 is 70 µg/mL (≈ 245 µM).

The compound `Nc1nc2c(nc(Br)n2COCCO)c(=O)[nH]1` gave an ID50 of more than 400 µg/mL.

The compound `Nc1nc(Cl)c2ncn(COCCO)c2n1` gave an ID50 of 70 µg/mL (≈ 287 µM).

With `O=c1[nH]c(=O)n([C@H]2C[C@H](O)[C@@H](CO)O2)cc1I` [IDOXURIDINE], the ID50 was found to be 0.2 µg/mL (≈ 0.565 µM).

Compound `CC(=O)OCCOCn1cnc2c(Cl)ncnc21` had an ID50 of 20 µg/mL (≈ 73.9 µM).

Compound `Nc1nc(O)c2nc(N3CCCCC3)n(COCCO)c2n1` displayed an ID50 of more than 400 µg/mL.

`Nc1nc2c(ncn2COCCO)c(=O)[nH]1` [ACYCLOVIR] showed an ID50 of 50 µg/mL (≈ 222 µM).

`Nc1nc2c(nc(N)n2COCCO)c(=O)[nH]1` showed an ID50 of more than 100 µg/mL.

As for `Nc1ncnc2c1ncn2COCCO`, the ID50 turned out to be 20 µg/mL (≈ 95.6 µM).

Take `O=c1[nH]c(=O)n([C@H]2C[C@H](O)[C@@H](CO)O2)cc1/C=C/Br` [BRIVUDINE]: the ID50 came out at 7 µg/mL (≈ 21 µM).

For the compound `CN(C)c1nc2c(=O)[nH]c(N)nc2n1COCCO`, the ID50 entry was “>=300 ug ml-1”.

For the origin of these results see ChEMBL document CHEMBL1122521, “Nucleic acid related compounds. 47. Synthesis and biological activities of pyrimidine and purine "acyclic" nucleoside analogues” (J Med Chem, 1984).
